In article PMC7954794, “Protein context shapes the specificity of SH3 domain-mediated interactions in vivo” (Nature Communications, 2021):

Experiments:
P130CAS/BCAR1 = assay: Co-immunoprecipitation / Western blot NCK2-P130CAS/BCAR1 (Fig. S6C-D); format: cell-based, human; details: Prey P130CAS, sheet FigS6A-D
Protocol: Human embryonic kidney 293T cells (HEK293T, ATCC:CRL-3216) were grown in Dulbecco’s Modified Eagle’s medium (DMEM) high glucose complemented with 10% fetal calf serum under 5% CO2 at 37 °C. Transient expression of cDNA in cells was performed by polyethylenimine (PEI, Millipore Sigma) transfections. Enrichment of phospho-dependent PPIs was done by treating HEK293T cells with the tyrosine phosphatase inhibitor pervanadate, freshly made by mixing 4 mM orthovanadate (Millipore Sigma) with 30% H2O2 (Millipore Sigma) in water in a 200:1 volume ratio.
(§1) For the experiments with HEK293T cells (1 × 10cm confluent dish for WB and 3 × 15cm for MS), cells were washed in ice-cold PBS and lysed in lysis buffer (20 mM Tris-HCl pH 7.4, 150 mM NaCl, 1 mM EDTA, 0.5% sodium deoxycholate (Millipore Sigma), 10 mM beta-glycerophosphate (Millipore Sigma), 10 mM sodium pyrophosphate (Millipore Sigma), 50 mM NaF (Millipore Sigma)). Protease inhibitors were added to the lysis buffer (P8340 (Millipore Sigma) for WB and PMSF 1 mM, aprotinin 10 µg/mL, leupeptin 10 µg/mL and pepstatin 10 µg/mL (all Millipore Sigma) for MS). Cells were scraped in the lysis buffer and lysed at 4 °C for 20 min and centrifuged for another 20 min at 20,000 g at 4 °C. Bait proteins from the supernatant were immunoprecipitated for 90 min at 4 °C with FLAG-M2 agarose beads (Millipore Sigma) and washed three times in the lysis buffer. Beads were then used for WB or MS experiments (see below).
(§2) Protein extracts and affinity-purified baits from yeast and human lysed cells were migrated on 10% polyacrylamide gels. The separated proteins were then transferred to nitrocellulose membranes. Validation of correct protein loading was done with ponceau staining of the membranes. Before the primary antibody incubations, membranes were blocked in 5% milk. Protein signals were detected on an Amersham Imager 600RGB (GE Healthcare) following the incubation of the membranes with the appropriate HRP-conjugated secondary antibodies and the Clarity Western ECL Substrate (Bio-Rad). The antibodies used in this study are M2-HRP (A8592, Sigma, 1/50,000), rabbit anti-FLAG (F7425, Sigma, 1/1000), PAK (SC-881, Santa Cruz, 1/200), p130cas/BCAR1 (SC-860, Santa Cruz, 1/200), actin (Cell Signaling Technology, 1/2000), anti-mouse HRP (Cell Signaling Technology, 1/10,000) and anti-rabbit HRP (Cell Signaling Technology, 1/10,000). The quantification of the WB signals was performed with the Amersham Imager 600 analysis software (GE Healthcare).
(§3) Supplementary Fig. 6| NCK2 SH3 shuffling affects its interactions with PAK1 and P130CAS/BCAR1 in cells but only slightly alters the availability of the SH3 binding pockets in vitro. A, Western blot analysis of NCK2 SH3-shuffled proteins interaction with PAK1. Each bait is N-terminally fused to a 3XFLAG tag. Loading corresponds to Ponceau staining of the nitrocellulose membrane. Experiment was performed in four replicates in HEK293T cells. B, Western blot quantification of PAK1 co-immunoprecipitation with NCK2.
(§4) Average log2 ratio relative to the WT protein is shown (NCK2mut/NCK2WT, WT NCK2 log2 ratio = 0). Ratios from replicates were compared t o WT NCK2 via pairwise ANOVA statistical […]
(§5) bars indicate the SD. C, Western blot analysis of NCK2 SH3-shuffled proteins association with SH2 target P130CAS/BCAR1. The experiment was performed in four replicates in HEK293T cells stimulated with the tyrosine phosphatase inhibitor pervanadate. D, Quantification of the Western blot signals of P130CAS co-immunoprecipitation with NCK2 as in B,. The four ratios of the replicates were compared to WT NCK2 via pairwise ANOVA statistical test (p -values: […]

PAK1 = assay: Co-immunoprecipitation / Western blot NCK2-PAK1 (Fig. S6A-B); format: cell-based, human; details: Prey PAK1, sheet FigS6A-D
Protocol: as §1, §2, §3, §4, §5
(1 picture or pasted object on this page, not shown here)

BEM1-2 = assay: DHFR-PCA on solid medium, bait BEM1-2 (Fig. 1B); format: cell-based, Saccharomyces cerevisiae; details: bait BEM1-2, label = prey; for medrep (log2 median colony size normalized to plate background, PCA score): 2-8 replicates; for Ratio (SH3-deleted/WT medrep): only significant differences showed, PPIs completely lost have a ratio of 0.1 and the gained PPIs 2.5
Description: (§6) Supplement 41467_2021_21873_MOESM8_ESM.xlsx, sheet "Fig1B" | column: medsize; medrep; Ratio; Score

ABP1 = assay: DHFR-PCA on solid medium, bait ABP1 (Fig. 1B); format: cell-based, Saccharomyces cerevisiae; details: bait ABP1, label = prey; 2-4 replicates
Description: as §6

BEM1-1 = assay: DHFR-PCA on solid medium, bait BEM1-1 (Fig. 1B); format: cell-based, Saccharomyces cerevisiae; details: bait BEM1-1, label = prey; for medrep (log2 median colony size normalized to plate background, PCA score): 2-8 replicates; for Ratio (SH3-deleted/WT medrep): only significant differences showed, PPIs completely lost have a ratio of 0.1 and the gained PPIs 2.5
Description: as §6

BOI2 = assay: DHFR-PCA on solid medium, bait BOI2 (Fig. 1B); format: cell-based, Saccharomyces cerevisiae; details: bait BOI2, label = prey; for medrep (log2 median colony size normalized to plate background, PCA score): 3-8 replicates; for Ratio (SH3-deleted/WT medrep): only significant differences showed, PPIs completely lost have a ratio of 0.1 and the gained PPIs 2.5
Description: as §6

BZZ1-1 = assay: DHFR-PCA on solid medium, bait BZZ1-1 (Fig. 1B); format: cell-based, Saccharomyces cerevisiae; details: bait BZZ1-1, label = prey; 4 replicates
Description: Supplement 41467_2021_21873_MOESM8_ESM.xlsx, sheet "Fig1B" | column: medsize; medrep; Score

[1] = system: 575 putative partners (preys) of 22 WT SH3-containing proteins; assay: DHFR-PCA on solid medium, WT and SH3-deleted baits (Fig. 1B); format: cell-based, Saccharomyces cerevisiae; set-up: key to Score: 0: SH3-independent; 1: SH3-dependent PPIs; 2: SH3-inhibited PPIs; details: for medrep (log2 median colony size normalized to plate background, PCA score): label = prey
Description: To assess the requirement of SH3 domains for PPIs in vivo, we first measured binary interactions between 22 WT SH3-containing proteins (Supplementary Fig. 1A) as baits and 575 putative partners from their interconnected signaling networks using the dihydrofolate reductase protein–fragment complementation assay (DHFR-PCA) in the budding yeast Saccharomyces cerevisiae. About 33% (202/607) of the PPIs detected were described before, mostly by direct methods (Supplementary Fig. 1B, C)[11]. We repeated the experiments with baits in which the SH3s were individually replaced with a flexible linker by genome editing (SH3 domain deletion/stuffing, Fig. 1A). The stuffer DNA sequence ([…]) codes for a small flexible poly-Gly with Ser peptide ([…]) that is inspired by previous experiments[12],[13]. About a third of the SH3-containing protein interactome is qualitatively or quantitatively SH3-dependent (171 PPIs out of 607, Fig. 1B and Supplementary Fig. 1B, C). We validated the vast majority of the quantitative changes in low-throughput experiments and excluded that this is simply due to changes in protein abundance in most cases (Supplementary Fig. 1D–G). SH3-binding motifs[14] are more frequent in the SH3-dependent PPI partners when compared to sequences from random proteins, SH3-independent PPI partners or PPI partners that are stronger or gained following SH3 deletions (p values = 1.5 × 10^−17, 0.0038 and 2.1 × 10^−08, respectively; Mann–Whitney test, one-tailed, Fig. 1C). The changes we measure are therefore enriched for PPIs that depend on the direct interactions of the domains with the PPI partners.
The complete list of strains, primers, and gRNAs used in this study can be found in Supplementary Tables 1–3. All constructed yeast strains were validated by polymerase chain reaction (PCR) and confirmed by Sanger sequencing of the locus of interest. Bait strains for the DHFR-PCA experiments were constructed as follows. The genes of interest were fused at their genomic 3′ end by replacing the stop codon with a linker ([…]), the DHFR F[1,2] followed by a smaller linker (GGGGS), a 1× FLAG tag ([…]) and the NATMX4 resistance cassette via homologous recombination (all amplified from pAG25-DHFR[1,2]-linker-FLAG). The set of 615 prey strains (DHFR F[3] fusions in the BY4742 background) were retrieved from the Yeast Protein Interactome Collection[43] with the exception of 73 that were reconstructed (Supplementary Tables 1 and 2). Knockout strains were taken from the yeast knockout collection except for ABP1, BEM1, BZZ1, and SLA1, which were reconstructed by replacing the ORFs with the NATMX4 resistance cassette by homologous recombination in the BY4741 background.
Yeast SH3 domain genomic sequences were replaced by CRISPR–Cas9 genome editing. Each SH3 domain (as defined by the SMART database V8.0 except for Ysc84 SH3 (as defined by PROSITE), see Source Data for all SH3 sequences and Supplementary Table 1 for primers used) was specifically targeted by one gRNA[46]. Yeast competent cells were co-transformed with a pCAS plasmid (Addgene plasmid 60847[47]) expressing both the gRNA of interest and Streptococcus pyogenes Cas9[46] and a donor DNA sequence (stuffer) with 60 bp homology arms surrounding the SH3 DNA sequence. The Stuffer DNA was either PCR amplified or digested from a plasmid. The stuffer DNA sequence ([…]) codes for a small flexible linker ([…]) inspired by protein linkers used in structural biology[12],[13]. This type of linker is frequently used for fusing proteins without affecting the structure of the linked proteins.
The overall DHFR-PCA pipeline is based on Tarassov et al.[43] and the procedures have also been published as a visualized protocol. The screens were performed with robotically manipulated pin tools (BM5-SC1, S&P Robotics Inc.). First, the preys were cherry-picked from 96-well plates to omnitrays in a 384 format on YPD + HPH solid media. […]

BBC1 = assay: DHFR-PCA on solid medium, bait BBC1 (Fig. 1B); format: cell-based, Saccharomyces cerevisiae; details: bait BBC1, label = prey; for medrep (log2 median colony size normalized to plate background, PCA score): 2-4 replicates
Description: as §6

BUD14 = assay: DHFR-PCA on solid medium, bait BUD14 (Fig. 1B); format: cell-based, Saccharomyces cerevisiae; details: bait BUD14, label = prey
Description: as §6

BOI1 = assay: DHFR-PCA on solid medium, bait BOI1 (Fig. 1B); format: cell-based, Saccharomyces cerevisiae; details: bait BOI1, label = prey; for medrep (log2 median colony size normalized to plate background, PCA score): 3-8 replicates; for Ratio (SH3-deleted/WT medrep): only significant differences showed, PPIs completely lost have a ratio of 0.1 and the gained PPIs 2.5
Description: as §6

[2] = average of R1-R4, SD in next column
[3] = bait SLA1-3, DHFR-PCA, Replicates 4 (2 for YCR009C, YDR388W, YIL033C)
[4] = only significant differences showed, PPIs completely lost have a ratio of 0.1 and the gained PPIs 2.5

Row | Substance | medrep (log2 median colony size normalized to plate background, PCA score) (BEM1-2) | medrep (log2 median colony size normalized to plate background, PCA score) (ABP1) | medrep (log2 median colony size normalized to plate background, PCA score) (BEM1-1) | Ratio (SH3-deleted/WT medrep) (BEM1-1) | medrep (log2 median colony size normalized to plate background, PCA score) (BOI2) | medrep (log2 median colony size normalized to plate background, PCA score) [1, 3] | Score ([1]; bait SLA1-3, label = prey) | medrep (log2 median colony size normalized to plate background, PCA score) (BBC1) | Ratio (SH3-deleted/WT medrep) (BOI2) | medrep (log2 median colony size normalized to plate background, PCA score) (BOI1) | Ratio (SH3-deleted/WT medrep) (BOI1) | Ratio (SH3-deleted/WT medrep) (BEM1-2) | further results
1 | NCK2 WT | – | – | – | – | – | – | – | – | – | – | – | – | Log2 ratio average (P130CAS/BCAR1; [2]): 0; Log2 ratio on WT R1 (P130CAS/BCAR1; replicate R1): 0; Ratio on WT R1 (P130CAS/BCAR1; replicate R1): 1; Log2 ratio on WT R3 (P130CAS/BCAR1; replicate R3): 0; Ratio on WT R3 (P130CAS/BCAR1; replicate R3): 1; Log2 ratio on WT R4 (P130CAS/BCAR1; replicate R4): 0; Ratio on WT R4 (P130CAS/BCAR1; replicate R4): 1; Log2 ratio average (PAK1; [2]): 0; Log2 ratio on WT R1 (PAK1; replicate R1): 0; Ratio on WT R1 (PAK1; replicate R1): 1; Log2 ratio on WT R3 (PAK1; replicate R3): 0; Ratio on WT R3 (PAK1; replicate R3): 1; Log2 ratio on WT R4 (PAK1; replicate R4): 0; Ratio on WT R4 (PAK1; replicate R4): 1
2 | YCR088W (PWATAEYDYDAAEDNELTFVENDKIINIEFVDDDWWLGELEKDGSKGLFPSNYVSLGN) | 1.996 | 5.528 | 1.996 | 0.1 | 2.0061 | 4.931 | 0 | 4.833 | – | – | – | – | medrep (log2 median colony size normalized to plate background, PCA score) (BZZ1-1): 4.666
3 | YER155C | – | – | – | – | 1.649 | – | – | – | 0.1 | 1.496 | 0.1 | – | medrep (log2 median colony size normalized to plate background, PCA score) (BUD14; 4 replicates): 1.311; Ratio (SH3-deleted/WT medrep) (BUD14; [4]): 0.1
4 | YGL206C | 1.4327 | 4.275 | – | – | – | 4.577 | 0 | 1.387 | – | 1.512 | 0.1 | 2.5 | Ratio (SH3-deleted/WT medrep) (BBC1; [4]): 0.4969
5 | YMR109W (PMFEAAYDFPGSGSPSELPLKKGDVIYITREEPSGWSLGKLLDGSKEGWVPTAYMKPHS) | 1.531 | 4.62 | 1.531 | 0.1 | 1.504 | 3.8664 | 0 | 5.231 | 0.1 | – | – | 0.1 | medrep (log2 median colony size normalized to plate background, PCA score) ([1]; bait SLA1-2, DHFR-PCA, Replicates 4 (2 for YCR009C, YDR388W)): 3.8664; Score ([1]; bait SLA1-2, label = prey): 1; Ratio (SH3-deleted/WT medrep) ([1]; bait SLA1-2, label = prey, only significant differences shown, PPIs completely lost have a ratio of 0.1, gained PPIs 2.5): 0.1
